From the supplement of paper PMC10307832

How the values were obtained:
Experiment in all cases: relative viability (nuclei count vs DMSO), 5 days (fraction); higher = more cells survive
Cabozantinib + OSI-027 = compound: COc1cc2nccc(Oc3ccc(NC(=O)C4(C(=O)Nc5ccc(F)cc5)CC4)cc3)c2cc1OC [Cabozantinib] + COc1cccc2cc(-c3nc([C@H]4CC[C@H](C(=O)O)CC4)n4ncnc(N)c34)[nH]c12 [OSI-027] (partner 0.5 µM)
In short: (§1)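 After 5 days of treatment, lung cancer cells in 1536-well plates were fixed and stained in a single step (final 0.05% Triton X-100, 1% formaldehyde, 1 ug/ml Hoechst) and their nuclei counted on 4× images. Treatment had been applied by pin tool the day after seeding as one drug alone or as a fixed anchor-drug dose with five library-drug doses (not always all listed) in √10 steps. Relative viability is the nuclei count of treated wells divided by that of vehicle wells, and values are medians of duplicate plates.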

Zosuquidar + Alpelisib = compound: O[C@@H](COc1cccc2ncccc12)CN1CCN([C@@H]2c3ccccc3[C@@H]3[C@H](c4ccccc42)C3(F)F)CC1 [Zosuquidar] + Cc1nc(NC(=O)N2CCC[C@H]2C(N)=O)sc1-c1ccnc(C(C)(C)C(F)(F)F)c1 [Alpelisib] (partner 2 µM)
In short: as §1

Kobe2602 + OSI-027 = compound: C1=CC(=CC=C1NC(=S)NNC2=C(C=C(C=C2[N+](=O)[O-])C(F)(F)F)[N+](=O)[O-])F [Kobe2602] + COc1cccc2cc(-c3nc([C@H]4CC[C@H](C(=O)O)CC4)n4ncnc(N)c34)[nH]c12 [OSI-027] (partner 0.5 µM)
In short: as §1

Kobe2602 + Vorinostat = compound: C1=CC(=CC=C1NC(=S)NNC2=C(C=C(C=C2[N+](=O)[O-])C(F)(F)F)[N+](=O)[O-])F [Kobe2602] + O=C(CCCCCCC(=O)Nc1ccccc1)NO [Vorinostat] (partner 1 µM)
In short: as §1

201T
relative viability (Cabozantinib + OSI-027; first compound 0.02 µM): 0.453 | relative viability (Cabozantinib + OSI-027; first compound 0.06325 µM): 0.877 | relative viability (Cabozantinib + OSI-027; first compound 0.2 µM): 0.772 | relative viability (Cabozantinib + OSI-027; first compound 0.6325 µM): 0.877 | relative viability (Cabozantinib + OSI-027; first compound 2 µM): 0.774 | relative viability (Zosuquidar + Alpelisib; first compound 0.01 µM): 0.891 | relative viability (Zosuquidar + Alpelisib; first compound 0.03162 µM): 0.965 | relative viability (Zosuquidar + Alpelisib; first compound 0.1 µM): 0.896 | relative viability (Zosuquidar + Alpelisib; first compound 0.3162 µM): 1.01 | relative viability (Zosuquidar + Alpelisib; first compound 1 µM): 1.06 | relative viability (Kobe2602 + OSI-027; first compound 0.2 µM): 0.815 | relative viability (Kobe2602 + OSI-027; first compound 0.6325 µM): 0.802 | relative viability (Kobe2602 + OSI-027; first compound 2 µM): 0.764 | relative viability (Kobe2602 + OSI-027; first compound 20 µM): 0.603 | relative viability (Kobe2602 + Vorinostat; first compound 0.2 µM): 0.959 | relative viability (Kobe2602 + Vorinostat; first compound 0.6325 µM): 0.938 | relative viability (Kobe2602 + Vorinostat; first compound 2 µM): 0.997 | relative viability (Kobe2602 + Vorinostat; first compound 6.325 µM): 1.03 | relative viability (Kobe2602 + Vorinostat; first compound 20 µM): 1.1

NCI-H2228
relative viability (Cabozantinib + OSI-027; first compound 0.02 µM): 0.495 | relative viability (Cabozantinib + OSI-027; first compound 0.06325 µM): 0.871 | relative viability (Cabozantinib + OSI-027; first compound 0.2 µM): 0.576 | relative viability (Cabozantinib + OSI-027; first compound 0.6325 µM): 0.449 | relative viability (Cabozantinib + OSI-027; first compound 2 µM): 0.508 | relative viability (Zosuquidar + Alpelisib; first compound 0.01 µM): 0.562 | relative viability (Zosuquidar + Alpelisib; first compound 0.03162 µM): 0.716 | relative viability (Zosuquidar + Alpelisib; first compound 0.1 µM): 0.881 | relative viability (Zosuquidar + Alpelisib; first compound 0.3162 µM): 0.679 | relative viability (Zosuquidar + Alpelisib; first compound 1 µM): 0.859 | relative viability (Kobe2602 + OSI-027; first compound 0.2 µM): 0.658 | relative viability (Kobe2602 + OSI-027; first compound 0.6325 µM): 0.684 | relative viability (Kobe2602 + OSI-027; first compound 2 µM): 0.549 | relative viability (Kobe2602 + OSI-027; first compound 6.325 µM): 0.416 | relative viability (Kobe2602 + OSI-027; first compound 20 µM): 0.722 | relative viability (Kobe2602 + Vorinostat; first compound 0.2 µM): 0.649 | relative viability (Kobe2602 + Vorinostat; first compound 0.6325 µM): 0.744 | relative viability (Kobe2602 + Vorinostat; first compound 2 µM): 0.522 | relative viability (Kobe2602 + Vorinostat; first compound 6.325 µM): 0.425 | relative viability (Kobe2602 + Vorinostat; first compound 20 µM): 0.611

LC-2-ad
relative viability (Cabozantinib + OSI-027; first compound 0.06325 µM): 0.933 | relative viability (Cabozantinib + OSI-027; first compound 0.2 µM): 0.74 | relative viability (Cabozantinib + OSI-027; first compound 0.6325 µM): 0.839 | relative viability (Cabozantinib + OSI-027; first compound 2 µM): 0.729 | relative viability (Zosuquidar + Alpelisib; first compound 0.01 µM): 0.892 | relative viability (Zosuquidar + Alpelisib; first compound 0.03162 µM): 0.938 | relative viability (Zosuquidar + Alpelisib; first compound 0.1 µM): 0.817 | relative viability (Zosuquidar + Alpelisib; first compound 0.3162 µM): 0.886 | relative viability (Zosuquidar + Alpelisib; first compound 1 µM): 0.928 | relative viability (Kobe2602 + OSI-027; first compound 0.2 µM): 0.775 | relative viability (Kobe2602 + OSI-027; first compound 0.6325 µM): 0.823 | relative viability (Kobe2602 + OSI-027; first compound 2 µM): 0.824 | relative viability (Kobe2602 + OSI-027; first compound 6.325 µM): 0.865 | relative viability (Kobe2602 + OSI-027; first compound 20 µM): 1.02 | relative viability (Kobe2602 + Vorinostat; first compound 0.2 µM): 0.664 | relative viability (Kobe2602 + Vorinostat; first compound 0.6325 µM): 0.706 | relative viability (Kobe2602 + Vorinostat; first compound 2 µM): 0.719 | relative viability (Kobe2602 + Vorinostat; first compound 6.325 µM): 0.649 | relative viability (Kobe2602 + Vorinostat; first compound 20 µM): 0.722

NCI-H2087
relative viability (Cabozantinib + OSI-027; first compound 0.02 µM): 0.364 | relative viability (Cabozantinib + OSI-027; first compound 0.06325 µM): 0.549 | relative viability (Cabozantinib + OSI-027; first compound 0.2 µM): 0.637 | relative viability (Cabozantinib + OSI-027; first compound 0.6325 µM): 0.562 | relative viability (Cabozantinib + OSI-027; first compound 2 µM): 0.633 | relative viability (Zosuquidar + Alpelisib; first compound 0.01 µM): 1 | relative viability (Zosuquidar + Alpelisib; first compound 0.03162 µM): 1.28 | relative viability (Zosuquidar + Alpelisib; first compound 0.1 µM): 1.2 | relative viability (Zosuquidar + Alpelisib; first compound 0.3162 µM): 1.19 | relative viability (Zosuquidar + Alpelisib; first compound 1 µM): 1.15 | relative viability (Kobe2602 + OSI-027; first compound 0.2 µM): 0.695 | relative viability (Kobe2602 + OSI-027; first compound 0.6325 µM): 0.544 | relative viability (Kobe2602 + OSI-027; first compound 2 µM): 0.501 | relative viability (Kobe2602 + OSI-027; first compound 6.325 µM): 0.574 | relative viability (Kobe2602 + OSI-027; first compound 20 µM): 0.652 | relative viability (Kobe2602 + Vorinostat; first compound 0.2 µM): 0.628 | relative viability (Kobe2602 + Vorinostat; first compound 0.6325 µM): 0.799 | relative viability (Kobe2602 + Vorinostat; first compound 2 µM): 0.64 | relative viability (Kobe2602 + Vorinostat; first compound 6.325 µM): 0.714 | relative viability (Kobe2602 + Vorinostat; first compound 20 µM): 0.568
